Measured values from PubChem BioAssay AID651703 (Broad Institute, 2012).
Values joined by “and” are separate entries in the source; they are usually repeats but may differ in a detail not shown here. Equal values may be shown once.

Target: Transforming acidic coiled-coil-containing protein 3 (Homo sapiens) (UniProt Q9Y6A5)
Experiment: ARNT/TACC3 interaction disruptors, potency, confirmation, biochemical, AlphaScreen, cherry-picked samples (AID 651703);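 further: TACC3 partner is the GST-tagged E629A mutant dimer; hits lower the signal meaning they disrupt ARNT binding to TACC3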
Conditions: AlphaScreen His-ARNT PAS-B / GST-TACC3 binding, luminescence

| SMILES | AC50 |
| --- | --- |
| COc1cc(/C=N/NC(=O)c2cncc(Br)c2)cc([N+](=O)[O-])c1O | 42 µM |
| CCCN(CCC)c1nc(-c2ccccn2)nc2ccccc12 | 15.5 µM |
| O=C(N[C@@H]1CC[C@@H](CCn2cc(-c3ccccn3)nn2)O[C@H]1CO)c1cccnc1 | 11.8 µM |
| O=C(Cc1ccccc1)Nc1nnc(-c2ccco2)o1 | 56.9 µM |
| O=S(=O)(N[C@H]1CC[C@@H](CCn2cc(-c3ccccn3)nn2)O[C@H]1CO)c1cccc(Cl)c1 | 23.4 µM |
| O=S(=O)(c1ccccc1)c1nc(-c2ccco2)oc1Nc1ccccc1 | 55.5 µM |
| N/C(=N\OS(=O)(=O)c1ccc(Cl)cc1)c1ccccn1 | 22.5 µM |
| Cc1nnc(NC(=O)C2CCN(S(=O)(=O)c3cc([N+](=O)[O-])ccc3Cl)CC2)o1 | 21.9 µM |
| Cc1cccc(S(=O)(=O)N[C@@H]2CC[C@@H](CCn3cc(-c4ccccn4)nn3)O[C@@H]2CO)c1 | 26.7 µM |
| O=C(N[C@@H]1CC[C@H](CCn2cc(-c3ccccn3)nn2)O[C@H]1CO)c1cccnc1 | 12.2 µM |
| CN1CCC(=O)N(CCOc2ccccc2)CC1 | 4.44 µM |
| Cc1cc(=O)[nH]c(-n2ncc(C#N)c2N)n1 | 59.7 µM |
| c1ccc(-c2cnc(Nc3nc(-c4ccccn4)nnc3-c3ccccc3)s2)cc1 | 0.916 µM |
| Cc1nc2ncccn2c1-c1csc(Nc2ccccc2)n1 | 41.6 µM |
| O=C(N/N=C/c1c(O)n(CCC2=CCCCC2)c(=O)[nH]c1=O)c1ccccc1 | 19.5 µM |
| N[C@@H]1CC[C@H](CCn2cc(-c3ccccn3)nn2)O[C@H]1CO | 1.13 µM |
| O=C(N[C@H]1CC[C@@H](CCn2cc(-c3ccccn3)nn2)O[C@H]1CO)c1ccc(F)cc1 | 12.6 µM |
| Cc1cccc(CNc2nc(-c3ccccn3)nnc2-c2ccccc2)c1 | < 0.5 µM |
| O=C(COc1ccccc1)Nc1nnc(-c2ccccc2)o1 | 16.5 µM |

| SMILES | AC50 |
| --- | --- |
| O=C(NCCCn1ccnc1)C(=O)NCC1OCCN1S(=O)(=O)c1ccc(F)cc1 (stereo unspecified) | 3.5 µM |
| COc1ccc(C(=O)Oc2cccc3cccnc23)cc1[N+](=O)[O-] | 15 µM |
| O=S(=O)(NC1CCN(Cc2ccc(OCCO)cc2)CC1)c1cccc2cccnc12 | 15.2 µM |
| O=C(Cn1cnc([N+](=O)[O-])n1)N/N=C/c1cc(Cl)ccc1O | 4.77 µM |
| CC1OC(CC(=O)O)CC2=C1C(=O)c1c(O)cccc1C2=O (stereo unspecified) | 46.9 µM |
| Cc1[nH][nH]c(=O)c1C(c1c(C)[nH][nH]c1=O)c1cn(Cc2cccc3ccccc23)c2ccccc12 | 19.9 µM |
| O=c1[nH]c(-c2ccccn2)nc2ccccc12 | 7.86 µM |
| COc1cc(OC)c(C(=O)OCC(=O)Nc2nnc(-c3ccccc3)o2)cc1OC | 19 µM |
| O=C(NNc1ccccn1)C(=O)NNS(=O)(=O)c1ccc(F)cc1 | 15.5 µM |
| Cc1oc(C(=O)O)cc1COc1cccc2cccnc12 | 36.6 µM |
| COc1ccc(S(=O)(=O)N2CCOC2CNC(=O)C(=O)NCCCn2ccnc2)cc1OC (stereo unspecified) | 22.4 µM |
| O=C(N[C@H]1CC[C@H](CCn2cc(-c3ccccn3)nn2)O[C@H]1CO)c1cccnc1 | 24.8 µM |
| O=C(COc1nsnc1N1CCOCC1)N/N=C/c1ccccc1O | 34.9 µM |
| Oc1cc(NCCN2CCOCC2)cc2cccnc12 | 1.46 µM |
| Oc1ccc(CN2CCN(Cc3ccccc3)CC2)c2cccnc12 | 2.41 µM |
| Nc1nc(-c2ccccn2)nc(N)c1Cc1ccc(Cl)cc1Cl | 2.6 µM |
| O=C(Nc1nc(-c2ccccn2)cs1)C1COc2ccccc2O1 (stereo unspecified) | 5.46 µM |
| C[C@@H]1CN([C@H](C)CO)C(=O)c2cc(NC(=O)Nc3ccc(C(F)(F)F)cc3)ccc2O[C@@H](C)CCCCO[C@H]1CN(C)Cc1ccc2c(c1)OCO2 | 64.9 µM |
| CCC1CCCCN1S(=O)(=O)c1ccc(NC(=O)CSc2ncccc2C(=O)O)cc1 (stereo unspecified) | 15.4 µM |

| SMILES | AC50 |
| --- | --- |
| CN(Cc1ccccc1)C(=O)c1[nH]cnc1C(=O)Nc1nccs1 | 22.5 µM |
| O=C(NCCCn1ccnc1)C(=O)NCC1OCCN1S(=O)(=O)c1ccc2c(c1)OCCO2 (stereo unspecified) | 13.2 µM |
| C/C(=N\NC(=O)Cc1ccc(Cl)cc1)c1ccccn1 | 10.2 µM |
| c1ccc(-c2nnc(-c3ccccn3)nc2NCc2ccccn2)cc1 | < 0.5 µM |
| Oc1ccc(CN2CCC(Cc3ccccc3)CC2)c2cccnc12 | 2.48 µM |
| Cc1ccc(C)c(S(=O)(=O)N2CCCOC2CNC(=O)C(=O)NCCCn2ccnc2)c1 (stereo unspecified) | 4.16 µM |
| O=C(CNCc1ccccn1)Nc1cc(C(F)(F)F)ccc1N1CCOCC1 | 17.4 µM |
| Cc1ccc(NC(=O)CN(C)C(=O)COc2cccc3cccnc23)cc1 | 41.7 µM |
| COc1cc(CNCc2ccccn2)ccc1OCc1ccc(Cl)cc1 | 60.7 µM |
| Cc1ccc(S(=O)(=O)/N=C2\C=C(Nc3ccc(O)cc3)C(=O)c3ccccc32)cc1 | 3.43 µM |
| O=C(COc1ccccc1)Nc1nnc(-c2ccco2)o1 | 36.6 µM |
| COc1ccccc1N1CCN(Cc2ccc(O)c3ncccc23)CC1 | 0.669 µM and 2.18 µM |
| c1ccc(CNCCN2CCNCC2)nc1 | 6.79 µM |
| COc1ccc(Br)cc1CNc1ccc(O)cc1 | 37.6 µM |
| COCCN=c1scc(-c2ccco2)n1/N=C/c1ccc(O)c(O)c1O | 9.77 µM |
| NCCc1cnc[nH]1 | 23.1 µM |
| Cc1ccc(NC(=O)CNCc2ccccn2)cc1S(=O)(=O)N(C)C | 8.68 µM |
| CSCC[C@H](NC(=O)OC(C)(C)C)C(=O)N/N=C/c1cccc2cccnc12 | 22.9 µM |
